Experimental data published in ChEMBL document CHEMBL2384934, “Discovery of 3-phenyl-1H-5-pyrazolylamine derivatives containing a urea pharmacophore as potent and efficacious inhibitors of FMS-like tyrosine kinase-3 (FLT3)” (Bioorg Med Chem, 2013).
pIC50: −log10 of the molar value. Activity calls are given as the source filed them. The rule behind the calls is not given here.

Columns and labels:
MOLM-13 [1] = assay: Antitumor activity against human MOLM13 cells xenografted in nu/nu mouse at 3 mg/kg, iv qd administered on days 1 to 5 and days 8 to 12 measured on day 11; type: functional; conditions: MOLM-13, 264 h, read-out: TGI
[2] = target: Proto-oncogene tyrosine-protein kinase receptor Ret (Homo sapiens) (UniProt P07949); assay: Inhibition of RET (unknown origin) at 1 uM
[3] = target: Glycogen synthase kinase-3 alpha (Homo sapiens) (UniProt P49840); assay: Inhibition of GSK3A (unknown origin) at 1 uM
Sequence of Glycogen synthase kinase-3 alpha (Homo sapiens) (P49840 2-483 limits assumed): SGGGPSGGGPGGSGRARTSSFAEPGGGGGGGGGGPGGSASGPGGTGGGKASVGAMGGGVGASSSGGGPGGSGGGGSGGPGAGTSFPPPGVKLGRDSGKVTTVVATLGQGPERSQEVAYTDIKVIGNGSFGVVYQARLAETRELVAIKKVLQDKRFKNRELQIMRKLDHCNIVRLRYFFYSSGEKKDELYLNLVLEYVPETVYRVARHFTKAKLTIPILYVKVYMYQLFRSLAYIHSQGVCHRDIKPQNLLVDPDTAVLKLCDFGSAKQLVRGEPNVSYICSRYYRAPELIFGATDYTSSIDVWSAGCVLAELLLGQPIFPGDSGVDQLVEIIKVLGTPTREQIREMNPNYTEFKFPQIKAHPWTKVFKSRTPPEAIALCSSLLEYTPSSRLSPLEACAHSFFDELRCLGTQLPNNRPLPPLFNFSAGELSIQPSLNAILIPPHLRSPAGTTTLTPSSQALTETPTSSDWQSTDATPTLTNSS

[4] = target: Proto-oncogene tyrosine-protein kinase Src (Homo sapiens) (UniProt P12931); assay: Inhibition of SRC (unknown origin) at 1 uM
[5] = target: Tyrosine-protein kinase JAK3 (Homo sapiens) (UniProt P52333); assay: Inhibition of JAK3 (unknown origin) at 1 uM
[6] = target: T1, Vascular endothelial growth factor receptor 2 (Homo sapiens, UniProt P35968); assay: biochemical; type: cell-based, Sf9
T1 sequence (P35968 whole entry): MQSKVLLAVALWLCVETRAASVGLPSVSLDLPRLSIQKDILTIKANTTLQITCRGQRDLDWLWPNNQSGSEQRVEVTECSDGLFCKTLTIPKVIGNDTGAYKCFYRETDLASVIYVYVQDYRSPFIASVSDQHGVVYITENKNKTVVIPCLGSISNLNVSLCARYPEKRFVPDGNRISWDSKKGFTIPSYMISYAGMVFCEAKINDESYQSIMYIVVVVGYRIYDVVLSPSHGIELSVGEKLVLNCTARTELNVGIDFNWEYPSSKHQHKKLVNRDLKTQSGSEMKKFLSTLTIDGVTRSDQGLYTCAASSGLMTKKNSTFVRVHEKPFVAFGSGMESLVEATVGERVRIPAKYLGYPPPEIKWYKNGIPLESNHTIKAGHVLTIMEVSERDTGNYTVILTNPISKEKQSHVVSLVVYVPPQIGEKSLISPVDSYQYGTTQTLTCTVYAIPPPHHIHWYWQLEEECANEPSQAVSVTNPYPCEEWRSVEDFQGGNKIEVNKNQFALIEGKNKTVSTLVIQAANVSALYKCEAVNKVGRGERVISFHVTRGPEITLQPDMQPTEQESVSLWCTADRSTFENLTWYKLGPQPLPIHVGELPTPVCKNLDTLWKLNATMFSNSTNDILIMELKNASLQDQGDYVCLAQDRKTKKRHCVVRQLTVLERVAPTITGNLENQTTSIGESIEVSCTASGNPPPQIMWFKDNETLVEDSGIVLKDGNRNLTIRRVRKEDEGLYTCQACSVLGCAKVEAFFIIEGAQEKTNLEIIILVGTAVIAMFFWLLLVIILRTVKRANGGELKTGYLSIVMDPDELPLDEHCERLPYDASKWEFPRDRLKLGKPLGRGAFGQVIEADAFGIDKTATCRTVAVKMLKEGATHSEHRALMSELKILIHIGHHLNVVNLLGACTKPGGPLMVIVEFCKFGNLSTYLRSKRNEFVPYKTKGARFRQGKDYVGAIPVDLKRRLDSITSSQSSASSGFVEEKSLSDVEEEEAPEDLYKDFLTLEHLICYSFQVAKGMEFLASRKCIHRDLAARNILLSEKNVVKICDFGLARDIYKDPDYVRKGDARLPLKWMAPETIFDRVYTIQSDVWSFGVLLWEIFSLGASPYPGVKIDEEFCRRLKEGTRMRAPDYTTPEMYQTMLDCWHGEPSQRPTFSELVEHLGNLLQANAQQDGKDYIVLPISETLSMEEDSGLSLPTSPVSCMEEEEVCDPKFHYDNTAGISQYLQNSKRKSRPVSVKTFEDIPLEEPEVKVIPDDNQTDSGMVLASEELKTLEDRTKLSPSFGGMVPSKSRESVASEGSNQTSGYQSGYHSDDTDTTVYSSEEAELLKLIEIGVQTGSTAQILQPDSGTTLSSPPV
Description: Inhibition of recombinant GST tagged VEGFR2 (789 to 1356) (unknown origin) transfected in insect sf9 cells after 120 mins by wallac counting analysis

[7] = target: Tyrosine-protein kinase receptor TYRO3 (Homo sapiens) (UniProt Q06418); assay: Inhibition of TYRO3 (unknown origin) at 1 uM
Sequence of Tyrosine-protein kinase receptor TYRO3 (Homo sapiens) (Q06418 whole entry): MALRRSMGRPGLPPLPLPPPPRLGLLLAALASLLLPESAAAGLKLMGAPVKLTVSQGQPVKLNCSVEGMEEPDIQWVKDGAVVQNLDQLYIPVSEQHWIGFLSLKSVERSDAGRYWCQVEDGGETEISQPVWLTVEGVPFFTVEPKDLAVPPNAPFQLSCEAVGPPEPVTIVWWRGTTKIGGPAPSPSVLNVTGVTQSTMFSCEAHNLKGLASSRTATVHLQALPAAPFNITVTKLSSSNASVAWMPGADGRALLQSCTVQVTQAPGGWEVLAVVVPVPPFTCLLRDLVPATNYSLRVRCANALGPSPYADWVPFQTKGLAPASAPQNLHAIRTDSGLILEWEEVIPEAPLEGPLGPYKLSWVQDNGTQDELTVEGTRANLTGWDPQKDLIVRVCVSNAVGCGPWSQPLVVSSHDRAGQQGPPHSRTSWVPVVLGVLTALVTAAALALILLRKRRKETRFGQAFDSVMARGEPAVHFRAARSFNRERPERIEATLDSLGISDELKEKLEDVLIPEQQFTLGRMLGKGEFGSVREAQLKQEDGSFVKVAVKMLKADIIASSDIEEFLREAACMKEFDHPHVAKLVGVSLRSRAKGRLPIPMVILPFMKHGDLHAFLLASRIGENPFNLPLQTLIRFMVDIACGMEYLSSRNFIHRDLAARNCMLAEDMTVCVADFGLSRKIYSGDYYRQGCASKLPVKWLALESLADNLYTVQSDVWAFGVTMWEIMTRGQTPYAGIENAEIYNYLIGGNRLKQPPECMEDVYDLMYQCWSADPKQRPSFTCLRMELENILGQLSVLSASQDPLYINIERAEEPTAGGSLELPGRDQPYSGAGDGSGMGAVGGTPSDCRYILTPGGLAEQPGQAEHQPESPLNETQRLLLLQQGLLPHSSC

[8] = target: T1, Vascular endothelial growth factor receptor 2; assay: Inhibition of KDR (unknown origin) at 1 uM by kinase Glo assay
[9] = target: Platelet-derived growth factor receptor beta (Homo sapiens) (UniProt P09619); assay: Inhibition of PDGFRB (unknown origin) at 1 uM by kinase Glo assay
[10] = target: Macrophage-stimulating protein receptor (Homo sapiens) (UniProt Q04912); assay: Inhibition of MST1R (unknown origin) at 1 uM
[11] = target: T2, Receptor-type tyrosine-protein kinase FLT3 (Homo sapiens, UniProt P36888); assay: biochemical; type: cell-based, Sf9
T2 sequence (P36888 whole entry): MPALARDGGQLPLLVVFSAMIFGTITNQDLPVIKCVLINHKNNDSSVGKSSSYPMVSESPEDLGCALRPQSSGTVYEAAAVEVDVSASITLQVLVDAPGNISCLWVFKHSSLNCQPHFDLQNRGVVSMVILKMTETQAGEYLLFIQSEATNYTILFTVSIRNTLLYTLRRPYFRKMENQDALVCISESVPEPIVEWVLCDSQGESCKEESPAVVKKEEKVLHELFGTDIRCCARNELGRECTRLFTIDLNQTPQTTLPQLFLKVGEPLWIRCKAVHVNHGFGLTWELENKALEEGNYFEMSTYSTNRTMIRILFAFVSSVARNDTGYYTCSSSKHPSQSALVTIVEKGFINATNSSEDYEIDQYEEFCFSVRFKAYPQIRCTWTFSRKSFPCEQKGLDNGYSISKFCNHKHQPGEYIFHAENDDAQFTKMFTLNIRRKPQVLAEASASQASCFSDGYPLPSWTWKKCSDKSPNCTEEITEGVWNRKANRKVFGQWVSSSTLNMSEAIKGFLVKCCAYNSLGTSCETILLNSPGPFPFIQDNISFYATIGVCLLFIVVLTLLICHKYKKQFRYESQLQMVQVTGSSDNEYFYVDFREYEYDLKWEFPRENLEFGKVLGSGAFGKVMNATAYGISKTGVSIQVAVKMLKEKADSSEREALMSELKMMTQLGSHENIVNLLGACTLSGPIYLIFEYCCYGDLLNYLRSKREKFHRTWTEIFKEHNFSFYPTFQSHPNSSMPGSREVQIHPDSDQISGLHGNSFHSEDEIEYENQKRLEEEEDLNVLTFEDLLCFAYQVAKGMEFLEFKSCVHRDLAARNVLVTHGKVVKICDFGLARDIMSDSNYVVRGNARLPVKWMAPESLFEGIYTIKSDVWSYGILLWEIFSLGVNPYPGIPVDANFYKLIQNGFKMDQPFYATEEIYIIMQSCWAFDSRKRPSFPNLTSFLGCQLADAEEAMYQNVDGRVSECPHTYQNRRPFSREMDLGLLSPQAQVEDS
Description: Inhibition of wild type GST tagged FLT3 kinase (567 to 993) (unknown origin) transfected in insect sf9 cells after 4 hrs by wallac counting analysis

[12] = target: CDK2/Cyclin A2 (Homo sapiens) (UniProt P24941+P20248); assay: Inhibition of CDK2/cyclin A (unknown origin) at 1 uM; type: protein-complex assay
[13] = AUC (0 to infinity) in Sprague-Dawley rat at 2 mg/kg, iv; type: ADME, organism-based; set-up: time infinity, dose 2 mg/kg, route intravenous; conditions: plasma
MOLM-13 [14] = assay: Antitumor activity against human MOLM13 cells xenografted in nu/nu mouse at 3 mg/kg, iv qd administered on days 1 to 5 and days 8 to 12; type: functional, organism-based; set-up: dose 3 mg/kg
MOLM-13 [15] = assay: cells; conditions: Homo sapiens, MOLM-13, 72 h
[16] = target: Ephrin type-A receptor 2 (Homo sapiens) (UniProt P29317); assay: Inhibition of EPHA2 (unknown origin) at 1 uM
[17] = target: Mitogen-activated protein kinase 10 (Homo sapiens) (UniProt P53779); assay: Inhibition of MAPK10 (unknown origin) at 1 uM
[18] = Oral bioavailability in Sprague-Dawley rat at 10 mg/kg; type: ADME, organism-based; conditions: in vivo
[19] = target: Insulin-like growth factor 1 receptor (Homo sapiens) (UniProt P08069); assay: Inhibition of IGF1R (unknown origin) at 1 uM
Sequence of Insulin-like growth factor 1 receptor (Homo sapiens) (P08069 31-736 limits assumed): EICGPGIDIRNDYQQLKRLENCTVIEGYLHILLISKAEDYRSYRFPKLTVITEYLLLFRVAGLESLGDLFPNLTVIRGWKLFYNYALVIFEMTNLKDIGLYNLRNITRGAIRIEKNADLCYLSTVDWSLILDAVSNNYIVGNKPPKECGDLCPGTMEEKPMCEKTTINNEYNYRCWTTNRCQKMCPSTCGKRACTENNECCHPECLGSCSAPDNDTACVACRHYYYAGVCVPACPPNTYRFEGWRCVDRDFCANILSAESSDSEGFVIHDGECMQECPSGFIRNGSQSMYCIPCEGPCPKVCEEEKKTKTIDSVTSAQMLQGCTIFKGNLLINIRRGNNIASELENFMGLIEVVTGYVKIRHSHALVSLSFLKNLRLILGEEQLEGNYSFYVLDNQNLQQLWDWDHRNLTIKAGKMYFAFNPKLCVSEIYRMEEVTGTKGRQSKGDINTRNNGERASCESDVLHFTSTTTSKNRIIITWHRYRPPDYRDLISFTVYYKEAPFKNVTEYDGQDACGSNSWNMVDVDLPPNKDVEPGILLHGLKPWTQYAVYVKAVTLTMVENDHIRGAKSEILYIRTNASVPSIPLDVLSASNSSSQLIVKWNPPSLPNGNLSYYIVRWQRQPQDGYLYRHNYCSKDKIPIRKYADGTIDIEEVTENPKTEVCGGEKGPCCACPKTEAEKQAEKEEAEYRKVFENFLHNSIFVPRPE
Sequence of Insulin-like growth factor 1 receptor (Homo sapiens) (P08069 741-1367 limits assumed): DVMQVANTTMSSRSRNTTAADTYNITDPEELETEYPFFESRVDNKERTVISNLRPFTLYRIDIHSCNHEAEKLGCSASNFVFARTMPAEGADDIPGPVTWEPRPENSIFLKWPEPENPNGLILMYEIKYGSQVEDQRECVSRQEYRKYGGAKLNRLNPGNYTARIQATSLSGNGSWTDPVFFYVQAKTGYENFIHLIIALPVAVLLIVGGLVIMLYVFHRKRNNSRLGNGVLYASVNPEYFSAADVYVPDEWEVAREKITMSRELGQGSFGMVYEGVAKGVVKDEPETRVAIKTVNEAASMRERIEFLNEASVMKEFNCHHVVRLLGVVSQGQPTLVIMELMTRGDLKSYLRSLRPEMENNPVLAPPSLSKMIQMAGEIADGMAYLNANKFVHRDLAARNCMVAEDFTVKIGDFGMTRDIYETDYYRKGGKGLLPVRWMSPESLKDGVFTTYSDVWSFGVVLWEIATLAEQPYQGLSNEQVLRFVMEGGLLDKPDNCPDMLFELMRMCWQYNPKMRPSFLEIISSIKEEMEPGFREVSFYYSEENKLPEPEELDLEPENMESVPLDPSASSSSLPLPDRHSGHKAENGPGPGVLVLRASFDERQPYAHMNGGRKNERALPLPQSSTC

[20] = target: Aurora kinase B (Homo sapiens) (UniProt Q96GD4); assay: Inhibition of AURKB (unknown origin) at 1 uM
Sequence of Aurora kinase B (Homo sapiens) (Q96GD4 whole entry): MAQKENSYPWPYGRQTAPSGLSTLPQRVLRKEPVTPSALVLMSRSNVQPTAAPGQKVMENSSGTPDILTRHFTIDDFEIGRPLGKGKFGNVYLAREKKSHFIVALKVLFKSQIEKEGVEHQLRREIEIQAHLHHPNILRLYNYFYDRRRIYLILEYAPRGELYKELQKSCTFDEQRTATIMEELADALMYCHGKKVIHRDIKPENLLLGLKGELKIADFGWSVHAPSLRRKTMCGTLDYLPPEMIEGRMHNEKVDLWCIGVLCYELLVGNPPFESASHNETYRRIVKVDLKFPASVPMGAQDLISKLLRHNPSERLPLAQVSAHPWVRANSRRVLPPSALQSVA

[21] = target: Tyrosine-protein kinase BTK (Homo sapiens) (UniProt Q06187); assay: Inhibition of BTK (unknown origin) at 1 uM
[22] = target: High affinity nerve growth factor receptor (Homo sapiens) (UniProt P04629); assay: Inhibition of NTRK1 (unknown origin) at 1 uM
[23] = target: Glycogen synthase kinase-3 beta (Homo sapiens) (UniProt P49841); assay: Inhibition of GSK3B (unknown origin) at 1 uM
Sequence of Glycogen synthase kinase-3 beta (Homo sapiens) (P49841 whole entry, looked up): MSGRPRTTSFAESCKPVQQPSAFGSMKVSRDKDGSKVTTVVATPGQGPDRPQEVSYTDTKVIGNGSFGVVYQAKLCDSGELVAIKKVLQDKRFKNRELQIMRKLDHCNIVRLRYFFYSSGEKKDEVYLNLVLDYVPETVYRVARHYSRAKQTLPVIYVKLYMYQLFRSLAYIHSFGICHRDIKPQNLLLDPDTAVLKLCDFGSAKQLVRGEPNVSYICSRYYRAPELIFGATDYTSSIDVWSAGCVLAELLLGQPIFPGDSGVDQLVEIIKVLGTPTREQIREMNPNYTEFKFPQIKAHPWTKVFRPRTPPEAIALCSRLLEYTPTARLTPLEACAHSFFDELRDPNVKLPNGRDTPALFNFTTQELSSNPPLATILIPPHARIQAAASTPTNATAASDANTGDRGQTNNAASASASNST

[24] = target: Serine/threonine-protein kinase MRCK alpha (Homo sapiens) (UniProt Q5VT25); assay: Inhibition of MRCKA (unknown origin) at 1 uM
[25] = target: Mast/stem cell growth factor receptor Kit (Homo sapiens) (UniProt P10721); assay: Inhibition of KIT (unknown origin) at 1 uM
[26] = Plasma clearance in Sprague-Dawley rat at 2 mg/kg, iv; type: ADME, organism-based; set-up: dose 2 mg/kg, route intravenous
[27] = target: Mitogen-activated protein kinase 14 (Homo sapiens) (UniProt Q16539); assay: Inhibition of MAPK14 (unknown origin) at 1 uM
MOLM-13 [28] = assay: Antitumor activity against human MOLM13 cells xenografted in nu/nu mouse at 10 mg/kg, iv qd administered on days 1 to 5 and days 8 to 12 measured on day 16; type: functional; conditions: MOLM-13, 384 h, read-out: TGI
[29] = target: Receptor-type tyrosine-protein kinase FLT3 (Homo sapiens, UniProt P36888, ITD); assay: Inhibition of FLT3/ITD mutant-mediated stat5 phosphorylation in human MV4-11 cells after 1 hr by Western blot analysis; type: cell-based
[30] = target: Hepatocyte growth factor receptor (Homo sapiens) (UniProt P08581); assay: Inhibition of MET (unknown origin) at 1 uM

CC(C)(C)c1cc(NC(=O)NCc2ccc(-c3cc(NC(=O)c4ccc(OCCN5CCOCC5)cc4)[nH]n3)cc2)no1 gave an inhibition in vivo at 3 mg/kg (MOLM-13 [1]) of 7%, an inhibition [2] of 97% and an inhibition [3] of 6%. It also gave an inhibition [4] of 35%, an inhibition [5] of 27% and a pIC50 [6] of 7.55. For the same compound, the inhibition [7] was 24%, the inhibition [8] was 99% and the inhibition [9] was 97%. The inhibition [10] was 13%, the pIC50 [11] was 7.74 and the inhibition [12] was 5%. For the same compound, the AUC(0-inf) [13] was 3140 ng·h/mL, the inhibition (MOLM-13 [14]) was “Active” and the GI50 (MOLM-13 [15]) was 3 nM. The inhibition [16] was 19%, the inhibition [17] was -3% and the bioavailability [18] was 1%. For the same compound, the inhibition [19] was -1%, the inhibition [20] was 79% and the inhibition [21] was -6%. It also gave an inhibition [22] of 98%, an inhibition [23] of 2% and an inhibition [24] of -2%. The inhibition [25] was 68%, the clearance [26] was 10.7 mL/min/kg and the inhibition [27] was 3%. It also gave an inhibition in vivo at 10 mg/kg (MOLM-13 [28]) of 84%, a pIC50 [29] of 9.00 and an inhibition [30] of 2%.
